# Test results reported in US20060004012A1, “Compounds, pharmaceutical compositions and methods for use in treating metabolic disorders” (priority 2004, published 2006).
# Target: T1, human GPR40 (Homo sapiens, UniProt O14842)
# T1 construct: expressed in transfected cells; host or cells: CHO cells, transiently transfected with Lipofectamine 2000 and co-transfected with an aequorin expression vector (Euroscreen)
# Test: Cell-based aequorin assay using human GPR40
# Settings: activation of human GPR40; CHO cells transfected with GPR40 and aequorin expression vectors; aequorin luminescence, area-under-curve 2-20 seconds; read-out: Relative EC50
# Method: A cell-based aequorin assay may be employed to characterize the modulatory activity of compounds on the GPR40 signaling pathway. In an exemplary assay, CHO cells are transfected in a 15 cm plated containing 14 million cells with 5 μg of GPR40 expression vector and 5 μg of Aequorin expression vector (Euroscreen) using Lipofectamine 2000 (Invitrogen). After 17-24 hours post-transfection, cells are washed with phosphate buffered saline (PBS) and detached from the tissue culture dish with 2 mL of trypsin (0.25%(w/v)). Trypsinization is halted with 28 mL of Hanks Buffered Salt Solution containing 20 mM Hepes (H/HBSS) and 0.01% fatty acid-free bovine serum albumin (BSA) or 0.625% fatty acid-free human serum albumin (HSA). Coelantrazine is added to 1 ug/mL and the cells are incubated for 2 hours at room temperature. Cells are gently mixed every 15 minutes. Compounds are dissolved in dimethyl sulfoxide for preparation of 10 mM stock solutions. Compounds are diluted in H/HBSS containing either 0.01% BSA or 0.625% HSA. Serial dilutions of the test compounds are prepared to determine dose response.
# Aequorin luminescence measurements are made using an EG&G Berthold 96-well luminometer and the response is measured over a 20 second interval after cells and compounds were mixed. The area-under-curve from 2-20 seconds is plotted to determine dose reponse. The EC50 (effective concentration to reach 50% maximal response) is determined from the dose response plot. […]
# T1 sequence (O14842 whole entry): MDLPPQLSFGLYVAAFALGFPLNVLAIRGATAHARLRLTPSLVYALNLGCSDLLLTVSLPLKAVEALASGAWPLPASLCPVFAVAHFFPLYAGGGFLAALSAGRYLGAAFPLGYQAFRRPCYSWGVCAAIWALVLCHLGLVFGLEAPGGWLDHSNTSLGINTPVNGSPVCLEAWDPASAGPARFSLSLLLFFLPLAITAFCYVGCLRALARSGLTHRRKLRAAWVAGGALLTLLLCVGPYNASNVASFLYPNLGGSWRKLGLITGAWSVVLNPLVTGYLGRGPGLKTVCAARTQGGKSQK
row,Structure (SMILES),EC50
1,CC#CC(CC(=O)O)c1ccc(OCc2cccc(Oc3ccccc3)c2)cc1 (centres unmarked) [Compound 10.3],0.01 to 0.1 µM
2,CC#CC(CC(=O)O)c1ccc(OCc2sc(-c3ccc(OC)c(OC)c3)nc2C)cc1 (centres unmarked) [Compound 9.4],0.01 to 0.1 µM
3,Cc1ccccc1COc1ccc(C(C#CC2CC2)CC(=O)O)cc1 (centres unmarked) [Compound 72],0.1 to 1 µM
4,CC#CC(CC(=O)O)c1ccc(OCc2cccc(-c3ccc(C#N)cc3)c2)cc1 (centres unmarked) [Compound 6.7],0.01 to 0.1 µM
5,COc1cccc(C(CC(=O)O)c2ccc(OCc3cccc(Oc4ccccc4)c3)cc2)c1 (centres unmarked) [Compound 84.8],0.1 to 1 µM
6,CCCCOc1ccc(C)cc1-c1ccc(COc2ccc(C(CC(=O)O)c3ccnn3C)cc2)cc1 (centres unmarked) [Compound 66.5],0.1 to 1 µM
7,O=C(O)CC(c1ccc(Cl)cc1)c1ccc(OCc2cccc(Oc3ccccc3)c2)cc1 (centres unmarked) [Compound 84.5],0.1 to 1 µM
8,"CC#CC(CC(=O)O)c1ccc(SCc2ccccc2C)cc1 (centres unmarked) [Compound 28, 3-[4-(2-Methyl-benzylsulfanyl)-phenyl]-hex-4-ynoic acid]",0.1 to 1 µM
9,CC#CC(CC(=O)O)c1ccc(OCc2csc(-c3ccc(OC)cc3)n2)cc1 (centres unmarked) [Compound 8.4],0.01 to 0.1 µM
10,CC#CC(CC(=O)O)c1ccc(OCc2cccc(-c3ccncc3)c2)cc1 (centres unmarked) [Compound 10.10],0.1 to 1 µM
11,CC#CC(CC(=O)O)c1ccc(OCc2sc(-c3ccc(C)cc3)nc2C)cc1 (centres unmarked) [Compound 9.2],< 0.01 µM
12,CC#CC(CC(=O)O)c1ccc(OCc2ccc(S(=O)(=O)c3ccccc3)cc2)cc1 (centres unmarked) [Compound 10.5],0.1 to 1 µM
13,CC#CC(CC(=O)O)c1ccc(OCc2cccc(-c3ccccc3OCC)c2)cc1 (centres unmarked) [Compound 6.2],0.01 to 0.1 µM
14,Cc1ccccc1COc1ccc(C(C#CC(F)(F)F)CC(=O)O)cc1 (centres unmarked) [Compound 87],> 10 µM
15,CC#CC(CC(=O)O)c1ccc(OCc2sc(-c3ccc(C(F)(F)F)cc3)nc2C)cc1 (centres unmarked) [Compound 9.1],0.01 to 0.1 µM
16,O=C(O)CN(c1ccccc1)c1ccc(NC(=O)Cc2ccccc2)cc1 [Compound 82.4],0.01 to 0.1 µM
17,CC#CC(CC(=O)O)c1ccc(OCc2csc(-c3ccc(Cl)cc3)n2)cc1 (centres unmarked) [Compound 8.3],0.01 to 0.1 µM
18,O=C(O)CC(c1ccc(OCc2cccc(Oc3ccccc3)c2)cc1)c1ccc(C(F)(F)F)cc1 (centres unmarked) [Compound 85.1],1 to 10 µM
19,CC#CC(CC(=O)O)c1ccc(OCc2csc(-c3ccc(OC)c(OC)c3)n2)cc1 (centres unmarked) [Compound 8.6],0.1 to 1 µM
20,O=C(O)CC(c1ccc(OCc2cccc(Oc3ccccc3)c2)cc1)c1cccc(C(F)(F)F)c1 (centres unmarked) [Compound 85.2],0.1 to 1 µM
21,COc1ccc(C(CC(=O)O)c2ccc(OCc3cccc(Oc4ccccc4)c3)cc2)cc1 (centres unmarked) [Compound 84.7],0.1 to 1 µM
22,CC(=O)N[C@@H](CC(=O)O)c1ccc(OCc2cccc(Oc3ccc(F)cc3)c2)cc1 [Compound 83],1 to 10 µM
23,"CC#C[C@@H](CC(=O)O)c1ccc(OCc2ccccc2C)cc1 (single isomer, unassigned) [Compound 15]",0.01 to 0.1 µM

row,Structure (SMILES),EC50
1,CC#C[C@@H](CC(=O)O)c1ccc(OCc2nc(-c3ccc(C(F)(F)F)cc3)oc2C)cc1 [Compound 86],< 0.01 µM
2,CC#CC(CC(=O)O)c1ccc(OCc2ccc(-c3ccc(C#N)cc3)cc2)cc1 (centres unmarked) [Compound 7.15],0.01 to 0.1 µM
3,CC#C[C@@H](CC(=O)O)c1ccc(OCc2csc(-c3ccc(C(F)(F)F)cc3)n2)cc1 [Compound 80],< 0.01 µM
4,"CC#C[C@@H](CC(=O)O)c1ccc(OCc2sc(-c3ccc(C)cc3)nc2C)cc1 [Compound 3, (S)-3-[4-(4-Methyl-2-p-tolyl-thiazol-5-ylmethoxy)-phenyl]-hex-4-ynoic acid]",< 0.01 µM
5,"Cc1ccc(C(CC(=O)O)c2ccc(OCc3cccc(Oc4ccccc4)c3)cc2)cc1 (single isomer, unassigned) [Compound 84.3]",0.1 to 1 µM
6,O=C(O)C[C@H](NC(=O)c1ccccc1)c1ccc(OCc2cccc(Oc3ccc(F)cc3)c2)cc1 [Compound 88.3],> 10 µM
7,CC#CC(CC(=O)NS(C)(=O)=O)c1ccc(OCc2ccc(OC)cc2)cc1 (centres unmarked) [Compound 81],1 to 10 µM
8,CC#CC(CC(=O)O)c1ccc(OCc2ccc(-c3ccccn3)cc2)cc1 (centres unmarked) [Compound 10.4],0.01 to 0.1 µM
9,CC#CC(CC(=O)O)c1ccc(OCc2cccc(N(CC)c3ccccc3)c2)cc1 (centres unmarked) [Compound 10.2],0.01 to 0.1 µM
10,CC#CC(CC(=O)O)c1ccc(N(C)Cc2cccc(OC)c2)cc1 (centres unmarked) [Compound 73],1 to 10 µM
11,Cc1ccccc1COc1ccc(C(C#CC(C)C)CC(=O)O)cc1 (centres unmarked) [Compound 71],0.1 to 1 µM
12,CC#CC(CC(=O)O)c1ccc(OCc2cccc(-n3cccc3)c2)cc1 (centres unmarked) [Compound 10.14],0.01 to 0.1 µM
13,CC#CC(CC(=O)O)c1ccc(OCc2ccc(-c3nc4ccccc4[nH]3)cc2)cc1 (centres unmarked) [Compound 78],1 to 10 µM
14,COc1ccc(COc2ccc(C(C#Cc3ccccc3)CC(=O)O)cc2)cc1 (centres unmarked) [Compound 14.6],1 to 10 µM
15,NC(=O)C(CC(=O)O)c1ccc(OCc2cccc(-c3ccc(C(F)(F)F)cc3)c2)cc1 (centres unmarked) [Compound 90],1 to 10 µM
16,CCC(=O)N[C@@H](CC(=O)O)c1ccc(OCc2cccc(Oc3ccc(F)cc3)c2)cc1 [Compound 88.2],> 10 µM
17,CCC(CC(=O)O)c1ccc(OCc2ccc(OC)cc2)cc1 (centres unmarked) [Compound 14.3],1 to 10 µM
18,"Cc1ccc(C(CC(=O)O)c2ccc(OCc3cccc(Oc4ccccc4)c3)cc2)cc1 (single isomer, unassigned) [Compound 84.2]",1 to 10 µM
19,Cc1ccccc1C(CC(=O)O)c1ccc(OCc2cccc(Oc3ccccc3)c2)cc1 (centres unmarked) [Compound 84.4],0.1 to 1 µM
20,CC#CC(CC(=O)O)c1ccc(OCc2cccc(-c3ccc(OCC)cc3)c2)cc1 (centres unmarked) [Compound 6.3],0.01 to 0.1 µM
21,CC#CC(CC(=O)O)c1ccc(OCc2cn(-c3ccc(Cl)cc3)nn2)cc1 (centres unmarked) [Compound 76],1 to 10 µM
22,CC#CC(CC(=O)O)c1ccc(OCc2ccccc2C)cc1 (centres unmarked) [Compound 17.6],0.1 to 1 µM
23,Cc1ccccc1COc1ccc(C(C#CC(F)(F)F)CC(=O)O)cc1 (centres unmarked) [Compound 75],> 10 µM

row,Structure (SMILES),EC50
1,CC#CC(CC(=O)O)c1ccc(NC(=O)c2cccc(OC)c2)cc1 (centres unmarked) [Compound 74],1 to 10 µM
2,O=C(O)CN(c1ccccc1)c1ccc(NC(=O)CCc2ccccc2)cc1 [Compound 82.5],< 0.01 µM
3,CC(C)CN(CC(C)C)[C@@H](CC(=O)O)c1ccc(OCc2cccc(Oc3ccc(F)cc3)c2)cc1 [Compound 88.1],> 10 µM
4,CC#CC(CC(=O)O)c1ccc(OCc2ccc(-c3ccc(C(F)(F)F)cc3)cc2)cc1 (centres unmarked) [Compound 7.10],0.1 to 1 µM
5,"CC#CC(CC(=O)Nc1nccs1)c1ccc(OCc2ccc(OC)cc2)cc1 (centres unmarked) [Compound 24, 3-[4-(4-Methoxy-benzyloxy)-phenyl]-hex-4-ynoic acid thiazol-2-ylamide]",0.1 to 1 µM
6,COc1ccc(COc2ccc(C(C=C(C)C)CC(=O)O)cc2)cc1 (centres unmarked) [Compound 34.5],0.1 to 1 µM
7,"CC#C[C@@H](CC(=O)O)c1ccc(OCc2ccc(OC)cc2)cc1 [Compound 39.7, (3S)-3-[4-(4-Methoxy-benzyloxy)-phenyl]-hex-4-ynoic acid]",0.01 to 0.1 µM
8,CC#CC(CC(=O)O)c1ccc(OCc2ccc(CCc3ccccc3)cc2)cc1 (centres unmarked) [Compound 10.7],0.1 to 1 µM
9,O=C(O)CC(c1ccc(OCc2cccc(-c3ccc(C(F)(F)F)cc3)c2)cc1)c1nccs1 (centres unmarked) [Compound 56],0.1 to 1 µM
10,COc1cccc(/C=C/C(=O)Nc2ccc(N(CC(=O)O)c3ccccc3)cc2)c1 [Compound 82.6],< 0.01 µM
11,CC#CC(CC(=O)O)c1ccc(OCc2ccc(-c3cccc(OCC)c3)cc2)cc1 (centres unmarked) [Compound 7.8],0.1 to 1 µM
12,CC#CC(CC(=O)O)c1ccc(OCc2cccc(-c3cccnc3)c2)cc1 (centres unmarked) [Compound 10.9],0.1 to 1 µM
13,"CC#C[C@@H](CC(=O)O)c1ccc(OCc2cc(-c3ccccc3)oc2C)cc1 [Compound 5, 3-[4-(2-Methyl-5-phenyl-furan-3-ylmethoxy)-phenyl]-hex-4-ynoic acid]",0.01 to 0.1 µM
14,CC#CC(CC(=O)O)c1ccc(OCc2cccc(-c3ccccn3)c2)cc1 (centres unmarked) [Compound 10.8],0.1 to 1 µM
15,CC#CC(CC(=O)O)c1ccc(OCc2ccc(-c3ccncc3)cc2)cc1 (centres unmarked) [Compound 10.13],0.1 to 1 µM
16,O=C(O)CC(c1ccc(OCc2cccc(-c3ccc(C(F)(F)F)cc3)c2)cc1)n1cccn1 (centres unmarked) [Compound 62.3],0.01 to 0.1 µM
17,CC#CC(CC(=O)O)c1ccc(OCc2csc(-c3ccc(C)cc3)n2)cc1 (centres unmarked) [Compound 8.5],0.01 to 0.1 µM
18,CC#CC(CC(=O)O)c1ccc(OCc2noc(-c3ccc(C(F)(F)F)cc3)n2)cc1 (centres unmarked) [Compound 27.1],0.1 to 1 µM
19,"CC#C[C@H](CC(=O)O)c1ccc(OCc2ccc(OC)cc2)cc1 [Compound 40.5, (3R)-3-[4-(4-Methoxy-benzyloxy)-phenyl]-hex-4-ynoic acid]",1 to 10 µM
20,O=C(O)CN(c1ccccc1)c1ccc(NCc2cccc(Oc3ccccc3)c2)cc1 [Compound 82.3],< 0.01 µM
21,CC#CC(CC(=O)O)c1ccc(OCc2csc(-c3ccccc3)n2)cc1 (centres unmarked) [Compound 8.2],0.01 to 0.1 µM
22,O=C(O)C[C@H](NC(=O)/C=C/c1ccccc1)c1ccc(OCc2cccc(Oc3ccc(F)cc3)c2)cc1 [Compound 88.5],> 10 µM
